According to the kinase profiling compilation of Christmann-Franck et al. (2016):
Values belong to the compound of their own block, whether it stands above or below them.

Assays:
Assay in all cases: radiometric filter-binding kinase assay
[1] = tested on: AKT1 (human), P31749 [S473D]
[2] = target: AURKA (human) (UniProt O14965)
[3] = target: BRSK1 (human) (UniProt Q8TDC3)
[4] = target: BRSK2 (human) (UniProt Q8IWQ3)
[5] = target: BTK (human) (UniProt Q06187)
[6] = target: CSK (human) (UniProt P41240)
[7] = target: CSNK1D (human) (UniProt P48730)
[8] = target: EEF2K (human) (UniProt O00418)
[9] = target: EPHA4 (human) (UniProt P54764)
[10] = target: ERBB4 (human) (UniProt Q15303)
Sequence of ERBB4 (human) (Q15303 whole entry, looked up): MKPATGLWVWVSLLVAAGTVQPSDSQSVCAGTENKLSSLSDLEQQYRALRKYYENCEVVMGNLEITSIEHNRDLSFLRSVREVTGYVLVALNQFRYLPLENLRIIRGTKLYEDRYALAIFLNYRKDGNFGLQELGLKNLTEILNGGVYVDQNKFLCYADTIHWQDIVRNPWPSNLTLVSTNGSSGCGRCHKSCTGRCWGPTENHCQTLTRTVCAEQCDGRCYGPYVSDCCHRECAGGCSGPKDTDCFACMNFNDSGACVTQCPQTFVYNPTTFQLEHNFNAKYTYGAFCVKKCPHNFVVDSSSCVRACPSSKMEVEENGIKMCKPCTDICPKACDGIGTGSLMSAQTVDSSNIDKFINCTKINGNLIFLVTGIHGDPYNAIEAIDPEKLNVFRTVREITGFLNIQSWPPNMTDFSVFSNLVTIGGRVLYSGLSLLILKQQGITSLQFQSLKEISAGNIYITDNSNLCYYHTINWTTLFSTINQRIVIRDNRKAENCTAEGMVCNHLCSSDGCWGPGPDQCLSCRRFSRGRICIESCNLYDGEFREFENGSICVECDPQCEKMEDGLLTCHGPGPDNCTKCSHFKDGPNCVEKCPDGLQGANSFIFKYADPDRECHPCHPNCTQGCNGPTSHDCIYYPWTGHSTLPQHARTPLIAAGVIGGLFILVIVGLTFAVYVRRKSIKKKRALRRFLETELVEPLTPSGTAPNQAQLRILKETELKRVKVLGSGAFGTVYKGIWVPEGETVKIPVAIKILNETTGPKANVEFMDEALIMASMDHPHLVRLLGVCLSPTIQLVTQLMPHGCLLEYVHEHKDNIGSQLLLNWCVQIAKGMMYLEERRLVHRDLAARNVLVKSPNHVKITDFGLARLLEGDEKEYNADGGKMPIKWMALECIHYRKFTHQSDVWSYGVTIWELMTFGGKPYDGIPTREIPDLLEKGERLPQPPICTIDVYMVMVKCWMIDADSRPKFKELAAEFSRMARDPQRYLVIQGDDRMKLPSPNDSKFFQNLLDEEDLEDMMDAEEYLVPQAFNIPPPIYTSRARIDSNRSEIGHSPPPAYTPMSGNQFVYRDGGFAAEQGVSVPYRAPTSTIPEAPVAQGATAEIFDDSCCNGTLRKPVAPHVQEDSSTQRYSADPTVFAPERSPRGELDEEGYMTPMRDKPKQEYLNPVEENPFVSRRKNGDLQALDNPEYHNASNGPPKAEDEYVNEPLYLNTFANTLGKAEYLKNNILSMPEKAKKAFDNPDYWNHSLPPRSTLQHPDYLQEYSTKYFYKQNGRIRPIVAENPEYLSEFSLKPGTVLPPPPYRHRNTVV

[11] = target: FGFR1 (human) (UniProt P11362)
[12] = target: GSK3B (human) (UniProt P49841)
Sequence of GSK3B (human) (P49841 whole entry, looked up): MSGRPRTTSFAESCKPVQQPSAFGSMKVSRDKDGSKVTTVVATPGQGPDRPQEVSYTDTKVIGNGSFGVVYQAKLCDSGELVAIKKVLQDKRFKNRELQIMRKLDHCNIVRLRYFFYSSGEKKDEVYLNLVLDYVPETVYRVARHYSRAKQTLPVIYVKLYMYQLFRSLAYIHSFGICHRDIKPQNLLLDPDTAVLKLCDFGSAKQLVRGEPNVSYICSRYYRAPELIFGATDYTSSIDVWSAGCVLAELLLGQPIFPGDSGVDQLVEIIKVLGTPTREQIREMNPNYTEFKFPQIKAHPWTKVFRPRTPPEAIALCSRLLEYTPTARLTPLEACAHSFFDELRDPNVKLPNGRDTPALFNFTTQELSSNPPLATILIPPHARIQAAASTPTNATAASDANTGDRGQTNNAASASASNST

[13] = target: HIPK1 (human) (UniProt Q86Z02)
[14] = target: HIPK3 (human) (UniProt Q9H422)
[15] = target: IKBKB (human) (UniProt O14920)
[16] = target: MAP2K2 (human) (UniProt P36507)
[17] = target: MAP2K6 (human) (UniProt P52564)
[18] = target: MAP3K1 (human) (UniProt Q13233)
[19] = target: MAP3K5 (human) (UniProt Q99683)
[20] = target: MAPK1 (human) (UniProt P28482)
[21] = target: MAPK15 (human) (UniProt Q8TD08)
[22] = target: MAPK3 (human) (UniProt P27361)
[23] = target: MAPK8 (human) (UniProt P45983)
Sequence of MAPK8 (human) (P45983 whole entry, looked up): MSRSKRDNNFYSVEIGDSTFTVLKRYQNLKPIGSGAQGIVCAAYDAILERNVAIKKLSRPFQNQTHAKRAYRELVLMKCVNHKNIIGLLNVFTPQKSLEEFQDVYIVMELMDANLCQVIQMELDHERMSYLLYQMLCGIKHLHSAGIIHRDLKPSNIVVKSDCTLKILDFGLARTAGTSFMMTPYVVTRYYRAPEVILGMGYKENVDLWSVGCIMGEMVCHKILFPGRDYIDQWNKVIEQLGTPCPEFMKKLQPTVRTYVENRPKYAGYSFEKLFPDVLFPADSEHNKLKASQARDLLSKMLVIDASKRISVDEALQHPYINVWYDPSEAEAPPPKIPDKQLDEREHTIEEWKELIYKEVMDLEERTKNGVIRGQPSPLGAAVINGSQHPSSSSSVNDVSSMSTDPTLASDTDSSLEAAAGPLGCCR

[24] = target: MAPK9 (human) (UniProt P45984)
[25] = target: MAPKAPK3 (human) (UniProt Q16644)
Sequence of MAPKAPK3 (human) (Q16644 whole entry, looked up): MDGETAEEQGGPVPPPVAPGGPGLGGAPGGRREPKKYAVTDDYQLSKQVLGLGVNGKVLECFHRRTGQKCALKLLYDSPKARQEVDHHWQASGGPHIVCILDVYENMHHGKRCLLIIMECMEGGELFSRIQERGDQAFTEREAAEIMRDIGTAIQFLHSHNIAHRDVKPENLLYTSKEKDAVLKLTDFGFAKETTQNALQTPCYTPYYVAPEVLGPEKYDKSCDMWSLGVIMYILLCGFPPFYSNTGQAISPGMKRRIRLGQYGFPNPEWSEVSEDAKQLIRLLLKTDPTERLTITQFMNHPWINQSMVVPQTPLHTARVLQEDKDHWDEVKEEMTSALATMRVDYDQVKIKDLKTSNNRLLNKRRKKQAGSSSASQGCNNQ

[26] = target: MKNK2 (human) (UniProt Q9HBH9)
[27] = target: NEK6 (human) (UniProt Q9HC98)
[28] = tested on: PAK2 (human), Q13177 [T402E]
[29] = target: PAK7 (human) (UniProt Q9P286)
Sequence of PAK7 (human) (Q9P286 whole entry, looked up): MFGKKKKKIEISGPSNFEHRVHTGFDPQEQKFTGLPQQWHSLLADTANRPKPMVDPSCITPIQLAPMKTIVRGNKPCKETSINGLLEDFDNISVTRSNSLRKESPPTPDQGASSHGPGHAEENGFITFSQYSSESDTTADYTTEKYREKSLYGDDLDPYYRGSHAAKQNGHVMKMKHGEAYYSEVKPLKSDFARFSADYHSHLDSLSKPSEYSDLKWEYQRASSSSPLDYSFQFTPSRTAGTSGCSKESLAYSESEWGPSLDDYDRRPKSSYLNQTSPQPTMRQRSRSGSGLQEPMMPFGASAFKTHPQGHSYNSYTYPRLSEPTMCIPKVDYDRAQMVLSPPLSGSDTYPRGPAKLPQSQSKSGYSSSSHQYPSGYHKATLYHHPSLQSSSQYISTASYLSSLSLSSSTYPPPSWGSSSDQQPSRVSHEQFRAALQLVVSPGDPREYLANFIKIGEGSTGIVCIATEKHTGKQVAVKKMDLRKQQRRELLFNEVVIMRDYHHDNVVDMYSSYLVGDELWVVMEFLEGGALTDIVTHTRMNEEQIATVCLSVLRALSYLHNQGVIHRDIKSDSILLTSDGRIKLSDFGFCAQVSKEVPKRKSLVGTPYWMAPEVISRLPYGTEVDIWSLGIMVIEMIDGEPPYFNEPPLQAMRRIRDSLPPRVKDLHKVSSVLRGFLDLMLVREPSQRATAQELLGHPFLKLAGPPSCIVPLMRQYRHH

[30] = target: PLK1 (human) (UniProt P53350)
[31] = target: RPS6KA3 KD1 KD2 (human) (UniProt P51812)
[32] = target: RPS6KA5 KD1 KD2 (human) (UniProt O75582)
[33] = target: SRPK1 (human) (UniProt Q96SB4)
[34] = target: STK11 CAB39 STRADA (human) (UniProt Q9Y376+Q7RTN6+Q15831)
[35] = target: TBK1 (human) (UniProt Q9UHD2)
Sequence of TBK1 (human) (Q9UHD2 whole entry, looked up): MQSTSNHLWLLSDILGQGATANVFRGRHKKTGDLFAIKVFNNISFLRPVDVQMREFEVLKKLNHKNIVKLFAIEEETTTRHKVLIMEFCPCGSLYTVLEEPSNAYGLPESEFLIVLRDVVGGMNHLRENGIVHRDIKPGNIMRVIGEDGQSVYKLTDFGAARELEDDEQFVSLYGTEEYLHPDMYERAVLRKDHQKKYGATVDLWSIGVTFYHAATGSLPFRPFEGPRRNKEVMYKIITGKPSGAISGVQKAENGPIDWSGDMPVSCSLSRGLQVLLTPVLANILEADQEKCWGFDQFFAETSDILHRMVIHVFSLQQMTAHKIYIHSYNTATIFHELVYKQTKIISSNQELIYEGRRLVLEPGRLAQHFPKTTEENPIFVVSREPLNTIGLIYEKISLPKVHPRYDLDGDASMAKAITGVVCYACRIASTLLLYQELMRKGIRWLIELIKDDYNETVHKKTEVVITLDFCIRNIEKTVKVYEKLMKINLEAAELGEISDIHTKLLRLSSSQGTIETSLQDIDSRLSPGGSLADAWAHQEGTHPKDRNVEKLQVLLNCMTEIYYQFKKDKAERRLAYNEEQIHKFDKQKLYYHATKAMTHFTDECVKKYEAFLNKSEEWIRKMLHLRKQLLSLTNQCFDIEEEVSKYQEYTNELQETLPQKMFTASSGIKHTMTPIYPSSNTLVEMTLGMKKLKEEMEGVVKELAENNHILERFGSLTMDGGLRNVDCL

Sequence of BRSK1 (human) (Q8TDC3 whole entry, looked up): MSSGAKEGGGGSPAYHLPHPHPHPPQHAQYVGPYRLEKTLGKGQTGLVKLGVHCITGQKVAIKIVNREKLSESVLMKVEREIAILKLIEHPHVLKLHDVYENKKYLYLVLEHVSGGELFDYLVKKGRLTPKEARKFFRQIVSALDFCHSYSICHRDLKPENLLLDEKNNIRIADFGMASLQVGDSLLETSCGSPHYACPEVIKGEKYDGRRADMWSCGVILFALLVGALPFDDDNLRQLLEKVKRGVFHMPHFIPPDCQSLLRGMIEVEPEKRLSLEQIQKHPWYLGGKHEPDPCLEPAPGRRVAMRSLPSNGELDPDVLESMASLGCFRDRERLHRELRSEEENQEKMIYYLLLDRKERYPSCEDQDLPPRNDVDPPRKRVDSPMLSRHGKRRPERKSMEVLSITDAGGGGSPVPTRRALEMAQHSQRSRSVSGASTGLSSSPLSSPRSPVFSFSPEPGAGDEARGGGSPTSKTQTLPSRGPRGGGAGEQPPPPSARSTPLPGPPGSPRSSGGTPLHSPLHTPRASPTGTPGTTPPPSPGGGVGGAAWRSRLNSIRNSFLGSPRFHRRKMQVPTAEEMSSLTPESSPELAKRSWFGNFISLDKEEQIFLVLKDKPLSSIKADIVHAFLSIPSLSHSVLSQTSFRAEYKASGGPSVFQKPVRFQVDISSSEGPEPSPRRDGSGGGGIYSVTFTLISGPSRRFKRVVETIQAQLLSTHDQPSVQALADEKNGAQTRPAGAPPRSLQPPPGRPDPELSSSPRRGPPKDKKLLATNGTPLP

residual activity ([1]; compound 0.1 µM): 109% | residual activity ([1]; compound 1.0 µM): 106% | residual activity ([1]; compound 10.0 µM): 94% | residual activity ([2]; compound 0.1 µM): 92% | residual activity ([2]; compound 1.0 µM): 88% | residual activity ([2]; compound 10.0 µM): 112% | residual activity ([3]; compound 0.1 µM): 96% | residual activity ([3]; compound 1.0 µM): 73% | residual activity ([3]; compound 10.0 µM): 26% | residual activity ([4]; compound 0.1 µM): 67% | residual activity ([4]; compound 1.0 µM): 26% | residual activity ([4]; compound 10.0 µM): 8% | residual activity ([5]; compound 0.1 µM): 92% | residual activity ([5]; compound 1.0 µM): 120% | residual activity ([5]; compound 10.0 µM): 79% | residual activity ([6]; compound 0.1 µM): 113% | residual activity ([6]; compound 1.0 µM): 116% | residual activity ([6]; compound 10.0 µM): 90% | residual activity ([7]; compound 0.1 µM): 75% | residual activity ([7]; compound 1.0 µM): 42% | residual activity ([7]; compound 10.0 µM): 18% | residual activity ([8]; compound 0.1 µM): 105% | residual activity ([8]; compound 1.0 µM): 111% | residual activity ([8]; compound 10.0 µM): 87% | residual activity ([9]; compound 0.1 µM): 90% | residual activity ([9]; compound 1.0 µM): 78% | residual activity ([9]; compound 10.0 µM): 48% | residual activity ([10]; compound 0.1 µM): 83% | residual activity ([10]; compound 10.0 µM): 73% | residual activity ([11]; compound 0.1 µM): 110% | residual activity ([11]; compound 1.0 µM): 85% | residual activity ([11]; compound 10.0 µM): 82% | residual activity ([12]; compound 0.1 µM): 86% | residual activity ([12]; compound 1.0 µM): 82% | residual activity ([12]; compound 10.0 µM): 51% | residual activity ([13]; compound 0.1 µM): 99% | residual activity ([13]; compound 1.0 µM): 99% | residual activity ([13]; compound 10.0 µM): 106% | residual activity ([14]; compound 0.1 µM): 95% | residual activity ([14]; compound 1.0 µM): 92% | residual activity ([14]; compound 10.0 µM): 101% | residual activity ([15]; compound 0.1 µM): 85% | residual activity ([15]; compound 1.0 µM): 50% | residual activity ([15]; compound 10.0 µM): 23% | residual activity ([16]; compound 0.1 µM): 106% | residual activity ([16]; compound 1.0 µM): 123% | residual activity ([16]; compound 10.0 µM): 115% | residual activity ([17]; compound 0.1 µM): 92% | residual activity ([17]; compound 1.0 µM): 29% | residual activity ([17]; compound 10.0 µM): 16% | residual activity ([18]; compound 0.1 µM): 115% | residual activity ([18]; compound 10.0 µM): 102% | residual activity ([19]; compound 0.1 µM): 98% | residual activity ([19]; compound 1.0 µM): 84% | residual activity ([19]; compound 10.0 µM): 21% | residual activity ([20]; compound 0.1 µM): 36% | residual activity ([20]; compound 1.0 µM): 29% | residual activity ([20]; compound 10.0 µM): 6% | residual activity ([22]; compound 0.1 µM): 78% | residual activity ([22]; compound 1.0 µM): 34% | residual activity ([22]; compound 10.0 µM): 10% | residual activity ([23]; compound 0.1 µM): 109% | residual activity ([23]; compound 1.0 µM): 100% | residual activity ([23]; compound 10.0 µM): 38% | residual activity ([24]; compound 0.1 µM): 91% | residual activity ([24]; compound 10.0 µM): 35% | residual activity ([25]; compound 0.1 µM): 92% | residual activity ([25]; compound 1.0 µM): 100% | residual activity ([25]; compound 10.0 µM): 92% | residual activity ([26]; compound 0.1 µM): 76% | residual activity ([26]; compound 1.0 µM): 31% | residual activity ([26]; compound 10.0 µM): 6% | residual activity ([27]; compound 0.1 µM): 86% | residual activity ([27]; compound 1.0 µM): 87% | residual activity ([27]; compound 10.0 µM): 42% | residual activity ([28]; compound 0.1 µM): 105% | residual activity ([28]; compound 1.0 µM): 93% | residual activity ([28]; compound 10.0 µM): 57% | residual activity ([29]; compound 0.1 µM): 97% | residual activity ([29]; compound 1.0 µM): 90% | residual activity ([29]; compound 10.0 µM): 71% | residual activity ([30]; compound 0.1 µM): 101% | residual activity ([30]; compound 1.0 µM): 117% | residual activity ([30]; compound 10.0 µM): 111% | residual activity ([31]; compound 0.1 µM): 98% | residual activity ([31]; compound 10.0 µM): 81% | residual activity ([32]; compound 0.1 µM): 97% | residual activity ([32]; compound 1.0 µM): 109% | residual activity ([32]; compound 10.0 µM): 79% | residual activity ([33]; compound 0.1 µM): 105% | residual activity ([33]; compound 1.0 µM): 86% | residual activity ([33]; compound 10.0 µM): 46% | residual activity ([34]; compound 0.1 µM): 77% | residual activity ([34]; compound 10.0 µM): 71% | residual activity ([35]; compound 1.0 µM): 88% | residual activity ([35]; compound 10.0 µM): 30%
Compound: NC(=O)c1cc(-c2ccnc(NC3CCCCC3)c2)nc(N2CCNCC2)c1
residual activity ([21]; compound 0.1 µM): 63% | residual activity ([21]; compound 1.0 µM): 26% | residual activity ([21]; compound 10.0 µM): 4%

residual activity ([1]; compound 0.1 µM): 118% | residual activity ([1]; compound 1.0 µM): 99% | residual activity ([1]; compound 10.0 µM): 105% | residual activity ([2]; compound 0.1 µM): 108% | residual activity ([2]; compound 1.0 µM): 102% | residual activity ([2]; compound 10.0 µM): 30% | residual activity ([3]; compound 0.1 µM): 106% | residual activity ([3]; compound 1.0 µM): 111% | residual activity ([3]; compound 10.0 µM): 91% | residual activity ([4]; compound 0.1 µM): 99% | residual activity ([4]; compound 1.0 µM): 103% | residual activity ([4]; compound 10.0 µM): 77% | residual activity ([5]; compound 0.1 µM): 118% | residual activity ([5]; compound 1.0 µM): 115% | residual activity ([5]; compound 10.0 µM): 110% | residual activity ([6]; compound 0.1 µM): 112% | residual activity ([6]; compound 1.0 µM): 109% | residual activity ([6]; compound 10.0 µM): 111% | residual activity ([7]; compound 0.1 µM): 92% | residual activity ([7]; compound 1.0 µM): 103% | residual activity ([7]; compound 10.0 µM): 105% | residual activity ([8]; compound 0.1 µM): 104% | residual activity ([8]; compound 1.0 µM): 100% | residual activity ([8]; compound 10.0 µM): 97% | residual activity ([9]; compound 0.1 µM): 107% | residual activity ([9]; compound 1.0 µM): 98% | residual activity ([9]; compound 10.0 µM): 109% | residual activity ([10]; compound 0.1 µM): 113% | residual activity ([10]; compound 1.0 µM): 109% | residual activity ([10]; compound 10.0 µM): 101% | residual activity ([11]; compound 0.1 µM): 98% | residual activity ([11]; compound 1.0 µM): 97% | residual activity ([11]; compound 10.0 µM): 94% | residual activity ([12]; compound 0.1 µM): 114% | residual activity ([12]; compound 1.0 µM): 124% | residual activity ([12]; compound 10.0 µM): 127% | residual activity ([13]; compound 0.1 µM): 110% | residual activity ([13]; compound 1.0 µM): 112% | residual activity ([13]; compound 10.0 µM): 101% | residual activity ([14]; compound 0.1 µM): 96% | residual activity ([14]; compound 1.0 µM): 94% | residual activity ([14]; compound 10.0 µM): 58% | residual activity ([15]; compound 0.1 µM): 103% | residual activity ([15]; compound 1.0 µM): 103% | residual activity ([15]; compound 10.0 µM): 72% | residual activity ([16]; compound 0.1 µM): 108% | residual activity ([16]; compound 10.0 µM): 120% | residual activity ([17]; compound 0.1 µM): 95% | residual activity ([17]; compound 10.0 µM): 109% | residual activity ([18]; compound 0.1 µM): 112% | residual activity ([18]; compound 1.0 µM): 115% | residual activity ([18]; compound 10.0 µM): 95% | residual activity ([19]; compound 0.1 µM): 104% | residual activity ([19]; compound 1.0 µM): 100% | residual activity ([20]; compound 10.0 µM): 111% | residual activity ([22]; compound 0.1 µM): 99% | residual activity ([22]; compound 1.0 µM): 100% | residual activity ([22]; compound 10.0 µM): 109% | residual activity ([23]; compound 0.1 µM): 103% | residual activity ([23]; compound 1.0 µM): 102% | residual activity ([23]; compound 10.0 µM): 110% | residual activity ([24]; compound 0.1 µM): 112% | residual activity ([24]; compound 1.0 µM): 114% | residual activity ([24]; compound 10.0 µM): 119% | residual activity ([25]; compound 0.1 µM): 120% | residual activity ([25]; compound 1.0 µM): 85% | residual activity ([25]; compound 10.0 µM): 47% | residual activity ([26]; compound 0.1 µM): 99% | residual activity ([26]; compound 10.0 µM): 126% | residual activity ([27]; compound 1.0 µM): 102% | residual activity ([27]; compound 10.0 µM): 111% | residual activity ([28]; compound 0.1 µM): 100% | residual activity ([28]; compound 1.0 µM): 96% | residual activity ([28]; compound 10.0 µM): 86% | residual activity ([29]; compound 0.1 µM): 102% | residual activity ([29]; compound 1.0 µM): 116% | residual activity ([29]; compound 10.0 µM): 111% | residual activity ([30]; compound 0.1 µM): 105% | residual activity ([30]; compound 1.0 µM): 101% | residual activity ([30]; compound 10.0 µM): 118% | residual activity ([31]; compound 0.1 µM): 114% | residual activity ([31]; compound 1.0 µM): 98% | residual activity ([31]; compound 10.0 µM): 74% | residual activity ([32]; compound 0.1 µM): 104% | residual activity ([32]; compound 1.0 µM): 101% | residual activity ([32]; compound 10.0 µM): 99% | residual activity ([33]; compound 0.1 µM): 89% | residual activity ([33]; compound 1.0 µM): 86% | residual activity ([33]; compound 10.0 µM): 63% | residual activity ([34]; compound 0.1 µM): 104% | residual activity ([34]; compound 1.0 µM): 111% | residual activity ([34]; compound 10.0 µM): 114% | residual activity ([35]; compound 1.0 µM): 107% | residual activity ([35]; compound 10.0 µM): 93%
Compound: CC1=C(CO)C(=O)O[C@@H]([C@@H](C)[C@H]2CC[C@H]3[C@@H]4C[C@H]5O[C@]56[C@@H](O)C=CC(=O)[C@]6(C)C4CC[C@]23C)C1 (stereo not given in full)
residual activity ([21]; compound 1.0 µM): 115% | residual activity ([21]; compound 10.0 µM): 72%
